How the values were obtained:
PKMYT1 = molecular target: T1, PKMYT1 (Homo sapiens, UniProt Q99640); assay: ADP-Glo PKMYT1 ATP-depletion assay; details: 50 nM PKMYT1, 13.3 nM CDK1, 88 μM ATP, 120 minutes at RT, read-out: Biochemical IC50
T1 construct: PKMYT1 (93 kD, full length, N-terminal GST tag from Signal Chem); GST (N); purchased Signal Chem
T1 sequence (Q99640 1-499): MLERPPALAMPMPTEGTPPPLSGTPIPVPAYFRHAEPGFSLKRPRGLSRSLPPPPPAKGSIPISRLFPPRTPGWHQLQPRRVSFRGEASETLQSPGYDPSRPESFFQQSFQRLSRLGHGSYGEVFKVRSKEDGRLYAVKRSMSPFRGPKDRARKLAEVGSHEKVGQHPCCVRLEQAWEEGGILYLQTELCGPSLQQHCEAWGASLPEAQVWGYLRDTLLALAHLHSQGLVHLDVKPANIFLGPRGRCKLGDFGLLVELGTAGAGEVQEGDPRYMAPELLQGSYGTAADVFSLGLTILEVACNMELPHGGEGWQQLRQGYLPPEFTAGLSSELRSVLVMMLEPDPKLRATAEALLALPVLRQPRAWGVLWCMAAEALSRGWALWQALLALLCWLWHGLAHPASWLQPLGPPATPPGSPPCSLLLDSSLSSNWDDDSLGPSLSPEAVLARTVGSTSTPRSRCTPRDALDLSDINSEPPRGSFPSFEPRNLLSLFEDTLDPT
Experimental: (§1) Biochemical IC50 values were determined via ADP-Glo™ assay. Cellular IC50 values were determined via AlphaLISA assay.
ADP-Glo™ PKMYT1 ATP-depletion assay. The activity of PKMYT1 is measured using a luciferase-luciferin based ATP detection reaction to quantify ATP depletion resulting from kinase-catalyzed phosphoryl transfer to CDK1 or autophosphorylation of PKMYT1. The ADP generated as a byproduct of the reaction is converted to ATP and used to drive a luciferase reaction. Test compounds were dissolved in DMSO and dispensed into Corning 3824 384-well plates prior to the experiment such that the final DMSO concentration was <10%. To the compounds was added 3 μL of PKMYT1 (93 kD, full length, N-terminal GST tag from Signal Chem). The reaction was started by the addition of 2 μL of CDK1 (58 kDa, full length, N-terminal GST tag from Signal Chem) and ATP in assay buffer (50 mM Hepes, 40 mM NaCl, 10 mM MgCl2, 1 mM DTT, 0.1 mg/mL BSA, 2.5 mM MnCl2). Final assay concentrations were 50 nM PKMYT1, 13.3 nM CDK1, and 88 μM ATP. Plates were centrifuged for 1 minute at 1000 RPM and incubated at RT for 120 minutes. After the incubation period, ADP-Glo™ reagent was added and the plates were incubated for another 40 minutes before finally adding the kinase detection reagent, 30 minutes after the addition, plates were placed on a PHERAstar® plate reader and read using the Luminescence Protocol, integration time at 0.5 seconds.

[1] = tested on: phosphorylation of CDK1 at Thr14 in HCC1806 cells; assay: Cell lysate AlphaLISA assay measuring inhibition of phosphorylation of CDK1 Thr14; type: cell-based; details: Homo sapiens, HCC1806, 4 h, compounds incubated 4 hours, AlphaLISA SureFire Ultra CDK1 Thr14, read-out: Cellular IC50
Experimental: as §1
Cell lysate AlphaLISA® assay measuring inhibition of phosphorvlation of CDK1 Thr14. Inhibition of phosphorylation of CDK1 at Thr14 was determined using AlphaLISAn SureFire® Ultra™ Kit from Perkin Elmer (ALSU-PCDK1-A10K). HCC1806 cells were seeded at 2K cells per well (50 μl/well) in 384-well plates (Corning 3570) and stored overnight at 37° C. and 5% CO2. The following day, the compounds dissolved in DMSO were introduced to the cells and incubated for 4 hours at 37° C. and 5% CO2. The cells were then washed with PBS using Blue® Washer and 10 μl of lysis buffer containing protease inhibitor was added. The plate was placed on an orbital shaker (at 4° C.) for 30 minutes and stored overnight at −80° C. for complete lysing. The next day, the plates were thawed at room temperature for at least 30 min. Reagents were prepared in a dimmed light setting (<100 lumens). The assay was run by first adding 5 μl of the acceptor mix (reaction buffer 1: reaction buffer 2:activation buffer:acceptor beads 47:47:4:2), covering the plate with foil, shaking for 2 minutes, and incubating at RT for 60 minutes. The donor mix (dilution buffer:donor beads 47:3) was then added at 5 μl per well, placed on the shaker for 2 minutes and incubated at RT for 60 minutes before reading the plates on a PHERAstar® plate reader. The results were normalized to DMSO (0% Inhibition) and 3 μM of reference compound.

Compound	IC50 (PKMYT1)	IC50 [1]
Cc1c(O)cccc1-c1c(N)c(C(N)=O)nc2c1c(C#N)cn2-c1ncccc1F (atropisomer, axis not shown; (M)) [Compound 78, (M)-5-Amino-3-cyano-1-(3-fluoropyridin-2-yl)-4-(3-hydroxy-2-methylphenyl)-1H-pyrrolo[2,3-b]pyridine-6-carboxamide]	< 0.05 µM	< 0.05 µM
Cc1c(O)cccc1-c1c(N)c(C(N)=O)nc2c1c(-c1c[nH]nn1)cn2C (atropisomer, axis not shown; (M)) [Compound 90, (M)-5-amino-4-(3-hydroxy-2-methylphenyl)-1-methyl-3-(1H-1,2,3-triazol-4-yl)-1H-pyrrolo[2,3-b]pyridine-6-carboxamide]	< 0.05 µM	< 0.05 µM
CCn1cc(C(N)=O)c2c(-c3cccc(O)c3C)c(N)c(C(N)=O)nc21 (atropisomer, axis not shown; (M)) [Compound 96, (M)-5-amino-1-ethyl-4-(3-hydroxy-2-methylphenyl)-1H-pyrrolo[2,3-b]pyridine-3,6-dicarboxamide]	< 0.05 µM	< 0.05 µM
Cc1ccc(O)c(C)c1-c1cc(C(N)=O)nc2c1c(C#N)cn2-c1ncccc1F (atropisomer, axis not shown; (P)) [Compound 68, (P)-3-Cyano-1-(3-fluoropyridin-2-yl)-4-(3-hydroxy-2,6-dimethylphenyl)-1H-pyrrolo[2,3-b]pyridine-6-carboxamide]	< 0.05 µM	< 0.05 µM
Cc1ccc(O)c(C)c1-c1c(N)c(C(N)=O)cc2c1ncn2C(F)(F)F (atropisomer, axis not shown; (P)) [Compound 70, (P)-5-Amino-4-(3-hydroxy-2,6-dimethylphenyl)-1-(trifluoromethyl)-1H-benzo[d]imidazole-6-carboxamide]	< 0.05 µM	< 0.05 µM
CCn1cnc2c(-c3c(C)ccc(O)c3C)c(N)c(C(N)=O)nc21 (atropisomer, axis not shown; (P)) [Compound 81, (P)-6-amino-3-ethyl-7-(3-hydroxy-2,6-dimethylphenyl)-3H-imidazo[4,5-b]pyridine-5-carboxamide]	< 0.05 µM	< 0.05 µM
Cc1ccc(O)c(C)c1-c1c(N)c(C(N)=O)cc2c1ncn2C(F)F (atropisomer, axis not shown; (P)) [Compound 85, (P)-5-amino-1-(difluoromethyl)-4-(3-hydroxy-2,6-dimethylphenyl)-1H-benzo[d]imidazole-6-carboxamide]	< 0.05 µM	< 0.05 µM
Cc1ccc(O)c(C)c1-c1c(N)c(C(N)=O)nc2c1ncn2CC(F)(F)F (atropisomer, axis not shown; (P)) [Compound 86, (P)-6-amino-7-(3-hydroxy-2,6-dimethylphenyl)-3-(2,2,2-trifluoroethyl)-3H-imidazo[4,5-b]pyridine-5-carboxamide]	< 0.05 µM	< 0.05 µM
Cc1ccc(O)c(C)c1-c1c(N)c(C(N)=O)cc2c1ncn2-c1ncccc1F (atropisomer, axis not shown; (P)) [Compound 87, (P)-5-amino-1-(3-fluoropyridin-2-yl)-4-(3-hydroxy-2,6-dimethylphenyl)-1H-benzo[d]imidazole-6-carboxamide]	< 0.05 µM	< 0.05 µM
Cc1ccc(O)c(C)c1-c1cc(C(N)=O)nc2c1c(Cl)cn2C (single isomer, unassigned) [Compound 31]	≥ 5 µM	
Cc1ccc(O)c(C)c1-c1cc(C(N)=O)nc2c1c(C#N)c(C)n2C (single isomer, unassigned) [Compound 33]	1 to 5 µM	
Cc1c(Cl)cncc1-c1c(N)c(C(N)=O)nc2c1c(C#N)cn2C [Compound 10]	0.05 to 0.5 µM	
Cc1c(Cl)cncc1-c1c(N)c(C(N)=O)nc2c1c(C#N)cn2C [Compound 11]	< 0.05 µM	

Continued, values first:

IC50 (PKMYT1)	IC50 [1]	Compound
< 0.05 µM	< 0.05 µM	Cc1ccc(O)c(C)c1-c1c(N)c(C(N)=O)nc2c1c(C(N)=O)nn2C (atropisomer, axis not shown; (M)) [Compound 74, (M)-5-Amino-4-(3-hydroxy-2,6-dimethylphenyl)-1-methyl-1H-pyrazolo[3,4-b]pyridine-3,6-dicarboxamide]
< 0.05 µM	< 0.05 µM	CCn1cc(C(N)=O)c2c(-c3c(C)ccc(O)c3C)c(N)c(C(N)=O)nc21 (atropisomer, axis not shown; (M)) [Compound 76, (M)-5-Amino-1-ethyl-4-(3-hydroxy-2,6-dimethylphenyl)-1H-pyrrolo[2,3-b]pyridine-3,6-dicarboxamide]
< 0.05 µM	< 0.05 µM	CCn1cc(-c2cn[nH]c2)c2c(-c3cccc(O)c3C)c(N)c(C(N)=O)nc21 (atropisomer, axis not shown; (M)) [Compound 91, (M)-5-amino-1-ethyl-4-(3-hydroxy-2-methylphenyl)-3-(1H-pyrazol-4-yl)-1H-pyrrolo[2,3-b]pyridine-6-carboxamide]
< 0.05 µM	< 0.05 µM	CCn1cc(C#N)c2c(-c3cccc(O)c3C)c(N)c(C(N)=O)nc21 (atropisomer, axis not shown; (M)) [Compound 92, (M)-5-amino-3-cyano-1-ethyl-4-(3-hydroxy-2-methylphenyl)-1H-pyrrolo[2,3-b]pyridine-6-carboxamide]
< 0.05 µM	< 0.05 µM	CCn1cc(-c2ncon2)c2c(-c3c(C)ccc(O)c3C)cc(C(N)=O)nc21 (atropisomer, axis not shown; (P)) [Compound 71, (P)-1-Ethyl-4-(3-hydroxy-2,6-dimethylphenyl)-3-(1,2,4-oxadiazol-3-yl)-1H-pyrrolo[2,3-b]pyridine-6-carboxamide]
< 0.05 µM	< 0.05 µM	Cc1ccc(O)c(C)c1-c1c(N)c(C(N)=O)nc2c1ncn2C(F)F (atropisomer, axis not shown; (P)) [Compound 72, (P)-6-Amino-3-(difluoromethyl)-7-(3-hydroxy-2,6-dimethylphenyl)-3H-imidazo[4,5-b]pyridine-5-carboxamide]
< 0.05 µM	< 0.05 µM	Cc1ccc(O)c(C)c1-c1c(N)c(C(N)=O)nc2c1ncn2C1CC(F)(F)C1 (atropisomer, axis not shown; (P)) [Compound 75, (P)-6-amino-3-(3,3-difluorocyclobutyl)-7-(3-hydroxy-2,6-dimethylphenyl)-3H-imidazo[4,5-b]pyridine-5-carboxamide]
< 0.05 µM	< 0.05 µM	Cc1ccc(O)c(C)c1-c1cc(C(N)=O)nc2c1c(C#N)cn2C(C)C (atropisomer, axis not shown; (P)) [Compound 88, (P)-3-cyano-4-(3-hydroxy-2,6-dimethylphenyl)-1-isopropyl-1H-pyrrolo[2,3-b]pyridine-6-carboxamide]
0.05 to 0.5 µM		Cc1ccc(O)c(C)c1-c1cc(C(N)=O)nc2c1c(Cl)cn2C (single isomer, unassigned) [Compound 32]
< 0.05 µM		Cc1ccc(O)c(C)c1-c1cc(C(N)=O)nc2c1c(C#N)c(C)n2C (single isomer, unassigned) [Compound 34]

From patent US20260207565A1, “COMPOUNDS THAT INHIBIT PKMYT1” (Exelixis, Inc., priority 2022, published 2026)
